Laboratory results reported in patent US20230277569A1, “Compositions and Methods for Treating, Ameliorating and/or Preventing Cancer and Kits for the Same” (priority 2022, published 2023).

Assay: Phase I, cytochrome P450-mediated human liver microsome metabolism
Conditions: 0.5 μM; human liver microsomes

Cc1ncc2n1-c1ccc(Cl)cc1C(c1ccccc1F)=NC2 [Midazolam, reference compound]
elimination rate constant (k): 0.04
intrinsic clearance (CLint): 3.23 mL/min/g
